The test deals with T1, human TLR8 (Homo sapiens, UniProt Q9NR97).
T1 construct: host or cells: HEK-Blue cells
T1 sequence (Q9NR97 27-1041): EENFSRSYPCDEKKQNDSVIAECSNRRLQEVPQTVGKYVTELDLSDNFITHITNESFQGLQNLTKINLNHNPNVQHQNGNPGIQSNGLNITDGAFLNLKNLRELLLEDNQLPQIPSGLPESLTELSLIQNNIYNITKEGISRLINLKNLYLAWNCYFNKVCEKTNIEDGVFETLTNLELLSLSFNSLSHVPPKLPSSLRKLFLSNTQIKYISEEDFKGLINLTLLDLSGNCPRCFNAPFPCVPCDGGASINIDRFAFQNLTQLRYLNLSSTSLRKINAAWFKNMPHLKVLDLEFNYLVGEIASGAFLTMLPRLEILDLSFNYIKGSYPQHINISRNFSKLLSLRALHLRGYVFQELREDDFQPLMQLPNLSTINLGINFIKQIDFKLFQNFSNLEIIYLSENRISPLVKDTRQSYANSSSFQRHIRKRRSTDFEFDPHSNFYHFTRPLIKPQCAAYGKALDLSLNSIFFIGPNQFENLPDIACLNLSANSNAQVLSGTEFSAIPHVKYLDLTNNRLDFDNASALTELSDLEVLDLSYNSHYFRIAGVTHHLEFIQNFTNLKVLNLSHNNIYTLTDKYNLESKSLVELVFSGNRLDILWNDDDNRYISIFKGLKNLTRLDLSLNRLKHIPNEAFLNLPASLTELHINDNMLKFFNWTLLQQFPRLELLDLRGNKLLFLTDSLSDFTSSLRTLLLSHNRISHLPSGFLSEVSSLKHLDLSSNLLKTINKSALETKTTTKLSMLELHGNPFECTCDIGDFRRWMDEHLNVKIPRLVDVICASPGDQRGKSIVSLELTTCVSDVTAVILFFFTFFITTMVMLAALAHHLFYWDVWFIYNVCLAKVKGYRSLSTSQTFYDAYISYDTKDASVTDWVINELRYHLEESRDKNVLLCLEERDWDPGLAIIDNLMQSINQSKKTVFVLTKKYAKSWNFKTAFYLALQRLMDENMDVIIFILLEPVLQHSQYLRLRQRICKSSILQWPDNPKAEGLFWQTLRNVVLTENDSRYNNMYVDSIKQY
The test is described as follows: TLR8 inhibition reporter assay (HEK-Blue cells, SEAP reporter, R848 stimulation). The test is classed as cell-based. The conditions noted are these: HEK-Blue cells overexpressing human TLR8, R848 15.9 μM. The essentials:
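SEAP readout via HEK-Blue Detection medium after 22 h at 37 °C, 5% CO2 defines inhibition, normalized between agonist-plus-DMSO wells and a reference inhibitor. Compound dose range 0.05 nM–50 μM; TLR7 cells at 15,000/well (gardiquimod), TLR8 at 20,000/well (R848).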
In general terms: A reporter such as luciferase makes a cellular process visible.
Turning to `CCNC(=O)N1CCC(c2ccc3[nH]c(-c4ccc(OC)c(OC)c4)c(CC(F)(F)F)c3c2)CC1` [Example 356, 4-(2-(3,4-dimethoxyphenyl)-3-(2,2,2-trifluoroethyl)-1H-indol-5-yl)-N-ethylpiperidine-1-carboxamide], the IC50 (usually the concentration that gives 50% inhibition) was determined as 0.626 µM. As to `COc1ccc(-c2[nH]c3ccc(C4CCN(C(=O)CCN(C)C)CC4)cc3c2CC(F)(F)F)cc1OC` [Example 340, 1-(4-(2-(3,4-dimethoxyphenyl)-3-(2,2,2-trifluoroethyl)-1H-indol-5-yl)piperidin-1-yl)-3-(dimethylamino)propan-1-one], the IC50 amounted to 0.032 µM. Under `COc1ccc(-c2[nH]c3ccc(C4CCN(C(=O)CCN5CCCCC5)CC4)cc3c2CC(F)(F)F)cc1OC` [Example 330, 1-(4-(2-(3,4-dimethoxyphenyl)-3-(2,2,2-trifluoroethyl)-1H-indol-5-yl)piperidin-1-yl)-3-(piperidin-1-yl)propan-1-one] stands 0.084 µM; under `COc1ccc(-c2[nH]c3ccc(C4CCN(CC(=O)N5CCC(C(N)=O)CC5)CC4)cc3c2CC(F)(F)F)cc1OC` [Example 369, 1-(2-(4-(2-(3,4-dimethoxyphenyl)-3-(2,2,2-trifluoroethyl)-1H-indol-5-yl)piperidin-1-yl)acetyl)piperidine-4-carboxamide], 0.043 µM.

With `COc1ccc(-c2[nH]c3ccc(C4CCN(CC(=O)N5CCN(C(C)C)CC5)CC4)cc3c2CC(F)(F)F)cc1OC` [Example 362, 2-(4-(2-(3,4-dimethoxyphenyl)-3-(2,2,2-trifluoroethyl)-1H-indol-5-yl)piperidin-1-yl)-1-(4-isopropylpiperazin-1-yl)ethan-1-one], the IC50 turned out to be 0.109 µM. `COc1ccc(-c2[nH]c3ccc(C4CCN(C(=O)CN(C)C)CC4)cc3c2CC(F)F)cc1OC` [Example 399, 1-(4-(3-(2,2-difluoroethyl)-2-(3,4-dimethoxyphenyl)-1H-indol-5-yl)piperidin-1-yl)-2-(dimethylamino)ethan-1-one] came in with an IC50 of 0.082 µM. In turn, `CCC(C)NC(=O)CN1CCC(c2ccc3[nH]c(-c4ccc(OC)c(OC)c4)c(CC(F)(F)F)c3c2)CC1` (centres unmarked) [Example 377, N-(sec-butyl)-2-(4-(2-(3,4-dimethoxyphenyl)-3-(2,2,2-trifluoroethyl)-1H-indol-5-yl)piperidin-1-yl)acetamide] gave an IC50 of 0.204 µM. For the compound `COc1ccc(-c2[nH]c3ccc(C4CCN(CC(=O)NCCS(=O)(=O)O)CC4)cc3c2CC(F)(F)F)cc1OC` [Example 386, 2-(2-(4-(2-(3,4-dimethoxyphenyl)-3-(2,2,2-trifluoroethyl)-1H-indol-5-yl)piperidin-1-yl)acetamido)ethane-1-sulfonic acid], the IC50 came to 0.59 µM.

For the origin of these results see patent US11180474B2 (BRISTOL-MYERS SQUIBB COMPANY, priority 2016, dated 2021).
